Source: patent US20160326165A1, “ALKOXYCARBONYL HEMIACETAL-TYPE ESTER PRODRUG OF PYRIDONE CARBOXYLIC ACID ANTIBACTERIAL DRUG” (KINKI UNIVERSITY, priority 2013, published 2016)
In brackets after ≈: the same amount, converted by molar mass.

What was measured:
[1] = system: Pseudomonas-aeruginosa ATCC 27853; assay: MIC (minimum inhibitory concentration) against Pseudomonas-aeruginosa ATCC 27853; assay type: cell-based
Source text: (§1) The MIC activity unit in the table is μg/mL.

[2] = system: Escherichia coli ATCC 25922; assay: MIC against Escherichia coli ATCC 25922; assay type: cell-based; conditions: ATCC25922
Source text: as §1

Escherichia coli NIH JC2 = assay: MIC against Escherichia coli NIH JC2; assay type: cell-based; conditions: NIHJC2
Source text: as §1

Enterobacter ATCC 23355 = assay: MIC against Enterobacter ATCC 23355; assay type: cell-based; conditions: ATCC23355
Source text: as §1

[3] = Rat intestinal everted sac method: intestinal absorption and hydrolysis to LVFX, alone or with AlCl3; assay type: in vitro ADME; conditions: for drug substance LVFX as a hydrolysis product in the everted intestinal tract: ester; for LVFX concentration generated within the small intestine lumen from the ester alone versus LVFX alone / influence of simultaneous administration of AlCl3 on LVFX generated: incubation 60 minutes; for hydrolysis into LVFX: incubation for 60 minutes, small intestine
Experimental: 1. Glucose 200 mg was dissolved in 100 ml of 20 mM HEPES buffer isotonic sodium chloride solution, and pH is regulated at 7.4 with 5N- or 1N-sodium hydroxide by measuring pH (If pH rises, pH is modulated with 1N-hydrochloric acid.).
1. Similarly in the case of independent administration, glucose 200 mg is dissolved in 100 ml of 20 mM HEPES buffer isotonic sodium chloride solution, and pH is regulated at 7.4 with 5N- or 1N-sodium hydroxide by measuring pH (If pH rises, pH is modulated with 1N-hydrochloric acid.).
2. AlCl3 8.0 mg is dissolved (600 μM).
1. A SD type male rat of 8-week old after the birth is purchased and undergoes quarantine habituation for two days. After fasting for 24 hours, a pentobarbital sodium (50 mg/ml) is injected intraperitoneally in the amount (ml) of: rat weight (g)×0.05/50 (that is, weight (g)×0.001).
2. After the rat sleeps completely, it is incised in the abdomen so as to be observed from the stomach till the bladder, and the intestinal tract is removed from the end of the duodenum to the front 5 cm of the cecum.
3. The intestinal tract is cut off every 10 cm carefully, and all portions are washed with physiological saline (both circumference and inside of intestinal).
4. The intestinal tract is made reversed from the stomach side using a stainless steel tube.
5. The cecum side of the reversed intestinal tract is tied with sutures to make bag-shaped.
6. One (1) ml of the HEPES buffer isotonic sodium chloride solution adjusted is put in from the stomach side of the intestinal tract, and the intestinal tract is tied with a suture.
7. The tied intestinal tract is put in the HEPES buffer isotonic sodium chloride solution cooled upon ice, and is preserved.
2. One (1) ml of the drug solution is taken, and it is diluted with 9 ml of the HEPES buffer isotonic sodium chloride solution 10 times (2 mM).
3. A portion (5 ml) of the solution is further diluted with 95 ml of the HEPES buffer isotonic sodium chloride solution to 20 times (100 μM).
1. Thirty (30) ml of the diluted drug solution is taken to a 50-ml Erlenmeyer flask, and the intestinal tract containing a HEPES buffer isotonic sodium chloride solution is put in.
2. […]
3. The intestinal tract is taken out from the drug solution, and, after flushing and wiping off the drug solution attached to the surroundings of the intestinal tract with the physiological saline, all liquid in the intestinal tract is taken out into the Eppendorf tube.
4. The liquid is centrifuged for 5 minutes at 12,000 rpm.
5. 250 μL of a supernatant liquid is taken as a sample.
The method is the same as the HPLC measurement conditions mentioned above in-vivo experiment.

[4] = Blood concentration and AUC of LVFX after oral administration to rats, alone or with a metal-containing preparation; conditions: for blood concentration of LVFX after independent administration of the ester versus independent administration of LVFX / blood concentration of LVFX under concomitant use of polyvalent metal-containing antacid: 0-240 minutes
Experimental: A cannulation inner tube (Fuji Systems Corporation Ltd., Tokyo) having an internal diameter of 0.5 mm and an outside diameter of 1.0 mm which is used for blood collecting was inserted in the jugular vein of rats on the preceding day before the administration experiment, and the rats were made to abstain from food for 20 hours in an environment where only water can be taken in the animal room.
The polyvalent metal-containing preparation Al(OH)3 was administered in a dose of 30 mg/kg subject.
After administration of the drug, a blood sample was collected through a jugular vein cannulation inner tube in an amount of 200 μL each along the time elapsed (after 0, 15, 30, 45, 60, 90, 120, 180, and 240 minutes) in a 1-mL syringe treated with heparin, the blood was centrifuged for 5 minutes at 12,000 rpm and 4 deg C immediately, and 50 μL of a supernatant was taken to make plasma.
The following procedures were carried out successively: addition of 100 μL of methanol solution containing 10 μmol/L of CPFX as an internal standard substance to 50 μL of plasma, then stirring; centrifuging for 5 minutes at 6,200 rpm; sampling 100 μL of the supernatant with a syringe; filtering the sample solution using Millex (registered trademark)-HV (0.45 micrometer, MILLIPORE, Billerica, Mass., USA). […] The HPLC measurement conditions were as follows; the column used: TSK-GEL ODS-80 Ts (250×4.6 mm, TOSOH Corp., Tokyo), the mobile phase used: 20-mm sodium-phosphate buffer solution (pH 3.0)/acetonitrile=79:21 (v/v). The measurement was carried out using Shimazu SPD-20A Spectrometer detector (Shimadzu, Kyoto) with 280 nm detection wavelength, and flow rate was 1.0 mL/min. The retention times obtained by these conditions were 6.9 minutes for ENX, and 7.2 minutes for CPFX.
The differences of AUCs between 4 groups were computed by performing the multiple comparison by Dunnett's method, and the range of p<0.05 was understood as having a statistical significance.

[5] = system: Pseudomonas-aeruginosa (ATCC27853), Escherichia coli (ATCC25922 and NIH JC2), and Enterobacter (ZTCC23355); assay: Comparison of antibacterial activities of LVFX and LVFX-EHE over all tested strains; assay type: cell-based; conditions: all four strains of Table 11

MIC [1] [µg/mL]	MIC [2] [µg/mL]	MIC (Escherichia coli NIH JC2) [µg/mL]	MIC (Enterobacter ATCC 23355) [µg/mL]	absorption amount with AlCl3 as percent of LVFX administration alone ([3]; LVFX and AlCl3 concomitantly)	LVFX concentration generated within the small intestine lumen from the ester alone versus LVFX alone [3]	influence of simultaneous administration of AlCl3 on LVFX generated [3]	hydrolysis into LVFX [3]	AUC of LVFX in blood on co-administration with the metal-containing preparation versus LVFX independent administration [4]	blood concentration of LVFX under concomitant use of polyvalent metal-containing antacid [4]	MIC values considered from clinical break points [5]	SMILES	drug substance LVFX as a hydrolysis product in the everted intestinal tract ([3]; concomitant administration with aluminum chloride)	drug substance LVFX as a hydrolysis product in the everted intestinal tract ([3]; independent administration alone)	peak of LVFX in blood derived from the ester ([4]; ester administered alone)	peak of LVFX in blood derived from the ester ([4]; ester co-administered with Al(OH)3 30 mg/kg)	blood concentration of LVFX after independent administration of the ester versus independent administration of LVFX [4]	antibacterial activity as compared to that of LVFX ([5]; ratio to LVFX)
0.5 (≈ 1.38 µM)	≤ 0.065	≤ 0.065	≤ 0.065	about 54%	–	–	–	–	–	–	C[C@H]1COc2c(N3CCN(C)CC3)c(F)cc3c(=O)c(C(=O)O)cn1c23 [LVFX, (3S)-9-fluoro-3-methyl-10-(4-methyl-1-piperazinyl)-7-oxo-2,3-dihydro-7H-pyrid [1,2,3-de] [1,4] benzoxazine-6-carboxylic acid, reference compound]	–	–	–	–	–	–
–	–	–	–	–	–	–	–	–	–	–	COC(=O)c1cn2c3c(c(N4CCN(C)CC4)c(F)cc3c1=O)OC[C@@H]2C [LVFX-M, (S)-Methyl-9-fluoro-3-methyl-10-(4-methylpiperazine-1-yl)-7-oxo-3,7-dihydro-2H-[1,4] oxazolino [2,3,4-ij] quinolin-6-carboxylate, reference compound]	not detected	not detected	no peak was detected	no peak was detected	–	–
–	–	–	–	–	no significant difference	no influence	completely hydrolyzed	no significant difference	not influenced	–	CC(C)OC(=O)OC(C)OC(=O)c1cn2c3c(c(N4CCN(C)CC4)c(F)cc3c1=O)OC[C@@H]2C (mixture of isomers) [LVFX-iPrHE, Levofloxacin isopropoxycarbonyl 1-ethyl hemiacetal-type ester]	–	–	–	–	A significant difference was not found	–
8 (≈ 16.8 µM)	0.5 (≈ 1.05 µM)	0.5 (≈ 1.05 µM)	2 (≈ 4.19 µM)	–	no significant difference	no influence	completely hydrolyzed	no significant difference	not influenced	non-sensitive to any bacterial strains	CCOC(=O)OC(C)OC(=O)c1cn2c3c(c(N4CCN(C)CC4)c(F)cc3c1=O)OC[C@@H]2C (stereo partly drawn) [LVFX-EHE, Levofloxacin ethoxycarbonyl-1-ethyl hemiacetal-type ester]	–	–	–	–	Significant differences were not observed	1/10
